Among the data in ChEMBL document CHEMBL5532671, “Leucosceptrane Sesterterpenoids as a New Type of Natural Immunosuppressive Agents in Treating Sepsis” (J Med Chem, 2024) are inhibition and IC50 values, retold here.

In general, inhibition refers to the relative decrease from the control value, in per cent. A word on the IC50: it is the concentration that inhibits the measured activity by half.

Common to all, as to assay type: functional
Experiment [1] relates to T-cell. The experiment can be described thus: Immunosuppressive activity in C57BL/6 female mouse T-cells isolated from spleen assessed as inhibition of LPS-induced IFN-gamma secretion at 20 uM treated for 48 hrs by ELISA based assay relative to control. To be noted: for inhibition at 20 µM: C57BL/6, T-cell. (In an ELISA, binding on a coated surface is turned into a signal by an enzyme label.)

Experiment [2] has as its system T-cell. The experiment can be described thus: Inhibition of proliferation of C57BL/6 female mouse T-cells isolated from spleen at 20 uM relative to control. Particulars: for inhibition at 20 µM: C57BL/6, T-cell.
Experiment [3] relates to T-cell. As to the kind of experiment: Immunosuppressive activity in C57BL/6 female mouse T-cells isolated from spleen assessed as inhibition of LPS-induced IFN-gamma secretion treated for 48 hrs by ELISA based assay. Particulars: C57BL/6, T-cell.

Some results are limits rather than exact numbers.

On to `CC(C)=C[C@H]1O[C@@](C)(C/C=C2\OC(=O)C=C2C)[C@@H]2C(=O)[C@]3(O)[C@@H](C)CC[C@H]3[C@H](C)[C@@]21O`, for which the figures for the inhibition at 20 µM in experiment [1] and in experiment [2] were 45.4% and under 10%, respectively.
Take Norleucosceptroid K: the figures for the inhibition in experiment [1] and in experiment [2] were 33.6% and 12.1%, respectively.
With `CC(C)=CC(=O)[C@@]1(O)[C@@H](C)[C@@H]2CC[C@H](C)[C@H]2C(=O)[C@]1(O)[C@@H](C)CC[C@]1(O)OC(=O)C=C1C`, the figures for the inhibition at 20 µM in experiment [1] and in experiment [2] were 48.6% and under 10%, respectively.
The like results for `CCC(=O)CC[C@H](C)[C@@]1(O)C(=O)[C@H]2[C@@H](CC[C@@H]2C)[C@H](C)[C@]1(O)C(=O)C=C(C)C` were, in that order, 32.6% and under 10%.
With `CC(C)=CC(=O)[C@@]1(O)[C@@H](C)[C@@H]2CC[C@H](C)[C@H]2C(=O)[C@@]12O[C@@H](c1occc1C)C[C@H]2C`, the inhibition at 20 µM is 63.4% in experiment [1] and under 10% in experiment [2]. For the same molecule, the IC50 in experiment [3] turned out to be 16.7 µM.
For `CC(C)=CC(=O)[C@@]1(O)[C@@H](C)[C@@H]2CC[C@H](C)[C@H]2C(=O)[C@@]12OC(=O)C[C@@H]2C`, the results for the inhibition at 20 µM in experiment [1] and in experiment [2] were 39.6% and under 10%, respectively.
Regarding `CC(C)=C[C@H]1O[C@@](C)(C[C@@H]2C(=O)C(C)=C[C@H]2O)[C@@H]2C(=O)[C@@]3(O)[C@@H](C)CC[C@H]3[C@H](C)[C@@]21O`, the inhibition at 20 µM is 65.3% in experiment [1] and 11% in experiment [2]. In addition, the IC50 in experiment [3] was 11.9 µM.
With `CC(C)=C[C@H]1O[C@@](C)(CC[C@@H]2OC(=O)C=C2C)C2=C1[C@@H](C)[C@@H]1CC[C@H](C)[C@@H]1C2=O`, the inhibition at 20 µM in experiment [1] is 31.3%; in experiment [2], under 10%.
For `CC(C)=CC1O[C@@]2(C)CC[C@]3(OC(=O)C=C3C)O[C@]13[C@H]2C(=O)[C@@]1(O)[C@@H](C)CC[C@H]1[C@@H]3C` (some centres not stated), the inhibition at 20 µM is 40.9% in experiment [1] and under 10% in experiment [2].
Consider `CC(C)=C[C@H]1O[C@@](C)(CC[C@@H]2OC(=O)C=C2C)C2=C1[C@@H](C)[C@@H]1CC[C@H](C)[C@]1(O)C2=O`, for which the inhibition at 20 µM in experiment [1] is 18.7%; in experiment [2], under 10%.
The like results for `CC(C)=C[C@H]1O[C@@](C)(CCO)C2=C1[C@@H](C)[C@@H]1CC[C@H](C)[C@]1(O)C2=O` were, in that order, 39.6% and under 10%.
For `CC(C)=C[C@H]1O[C@@](C)(C/C=C2\NC(=O)C=C2C)C2=C1[C@@H](C)[C@@H]1CC[C@H](C)[C@]1(O)C2=O`, the inhibition at 20 µM in experiment [1] amounted to 66%; in experiment [2] it was 10.4%. Moreover, in experiment [3], the IC50 was 26.8 µM.
As to `CC(C)=C[C@H]1O[C@@]2(C)C[C@H](c3occc3C)O[C@]13[C@H]2C(=O)[C@@]1(O)[C@@H](C)CC[C@H]1[C@@H]3C`, the inhibition at 20 µM came out at 57.7% in experiment [1] and 18.6% in experiment [2]. Also, the concentration for half-maximal inhibition (IC50) in experiment [3] is 22 µM.
`CC(C)=C[C@H]1O[C@@](C)(C/C=C2\NC(=O)C=C2C)[C@@H]2C(=O)[C@H]3[C@@H](CC[C@@H]3C)[C@H](C)[C@@]21O`: the inhibition at 20 µM in experiment [1] was 16.9%; in experiment [2], under 10%.
Regarding `CC(C)=C[C@H]1O[C@@](C)(CCC(=O)O)C2=C1[C@@H](C)[C@@H]1CC[C@H](C)[C@H]1C2=O`, the inhibition at 20 µM was determined as 45.9% in experiment [1] and 18.2% in experiment [2].
As for `CC(C)=C[C@H]1O[C@@](C)(CC=O)C2=C1[C@@H](C)[C@@H]1CC[C@H](C)[C@]1(O)C2=O`, the inhibition at 20 µM in experiment [1] was 65.4%; in experiment [2], under 10%. For the same molecule, the IC50 in experiment [3] was 8.48 µM.
For `CC(C)=C[C@H]1O[C@@](C)(C/C=C2\NC(=O)C=C2C)[C@@H]2C(=O)[C@@]3(O)[C@@H](C)CC[C@H]3[C@H](C)[C@@]21O`, the inhibition at 20 µM in experiment [1] is 44%; in experiment [2] it was under 10%.
In the case of `CC(C)=C[C@H]1O[C@@](C)(CC[C@@]2(O)OC(=O)C=C2C)[C@@H]2C(=O)[C@@H]3[C@@H](CC[C@@H]3C)[C@H](C)[C@@]21O`, the values for the inhibition at 20 µM in experiment [1] and in experiment [2] were 47.5% and 15.3%, respectively.
With `CC(C)=C[C@H]1O[C@@](C)(CC(=O)O)C2=C1[C@@H](C)[C@@H]1CC[C@H](C)[C@H]1C2=O`, the inhibition at 20 µM in experiment [1] is 39.9%; in experiment [2], 25%.
The like results for `CC(C)=C[C@H]1O[C@@]2(C)C[C@H]([C@H]3NC(=O)C=C3C)O[C@]13[C@H]2C(=O)[C@H]1[C@@H](CC[C@@H]1C)[C@@H]3C` were, in that order, 43.1% and 13.1%.
Take `CC(C)=C[C@H]1O[C@@](C)(CCc2occc2C)[C@@H]2C(=O)[C@H]3[C@@H](CC[C@@H]3C)[C@H](C)[C@@]21O`: the inhibition at 20 µM in experiment [1] was found to be 63.9%; in experiment [2], 12.3%. Moreover, in experiment [3], the IC50 is 9.8 µM.
Regarding `CC(C)=C[C@H]1O[C@@](C)(C[C@H]2C(=O)C(C)=C[C@@H]2O)[C@@H]2C(=O)[C@@]3(O)[C@@H](C)CC[C@H]3[C@H](C)[C@@]21O`, the inhibition at 20 µM in experiment [1] was found to be 57.3%; in experiment [2], 11.8%. Moreover, in experiment [3], the IC50 was determined as 11.6 µM.
Turning to `CC(C)=C[C@H]1O[C@@](C)(CC[C@@H]2OC(=O)C=C2C)[C@@H]2C(=O)[C@H]3[C@@H](CC[C@@H]3C)[C@H](C)[C@@]21O`, the figures for the inhibition at 20 µM in experiment [1] and in experiment [2] were 57.6% and 26.7%, respectively. Besides, the IC50 in experiment [3] came out at 23.6 µM.
`CC(C)=C[C@H]1O[C@@](C)(CCc2occc2C)[C@@H]2C(=O)[C@@]3(O)[C@@H](C)CC[C@H]3[C@H](C)[C@@]21O`: the inhibition at 20 µM was 40.4% in experiment [1] and 16.8% in experiment [2].
For the molecule `CC(C)=C[C@H]1O[C@@](C)(C/C=C2/OC(=O)C=C2C)C2=C1[C@@H](C)[C@@H]1CC[C@H](C)[C@@]1(O)C2=O`, the inhibition at 20 µM is 32.5% in experiment [1] and under 10% in experiment [2].
Take `CC(C)=C[C@H]1O[C@@](C)(CCc2occc2C)[C@@H]2C(=O)[C@@H]3[C@@H](CC[C@@H]3C)[C@H](C)[C@@]21O`: the values for the inhibition at 20 µM in experiment [1] and in experiment [2] were 53.7% and under 10%, respectively. For the same molecule, in experiment [3], the IC50 stood at 19.9 µM.
For `CC(C)=CC(=O)[C@@]1(O)[C@@H](C)[C@@H]2CC[C@H](C)[C@H]2C(=O)[C@]1(O)[C@@H](C)CCc1occc1C`, the inhibition at 20 µM in experiment [1] was 41.6%; in experiment [2], under 10%.
Take `CC(C)=C[C@H]1O[C@@]2(C)C[C@H](c3occc3C)O[C@]13[C@H]2C(=O)[C@H]1[C@@H](CC[C@@H]1C)[C@@H]3C`: the inhibition at 20 µM in experiment [1] was 49.7%; in experiment [2], 13.6%.
`CC(C)=C[C@H]1O[C@@](C)(CC[C@@]2(O)OC(=O)C=C2C)C2=C1[C@@H](C)[C@@H]1CC[C@H](C)[C@@]1(O)C2=O`: the inhibition at 20 µM in experiment [1] was 36.8%; in experiment [2], under 10%.
Regarding `CC(C)=CC(=O)[C@@]1(O)[C@@H](C)[C@@H]2CC[C@H](C)[C@H]2C(=O)[C@]1(O)[C@@H](C)CC[C@@H]1OC(=O)C=C1C`, the inhibition at 20 µM in experiment [1] was 32.1%; in experiment [2], under 10%.
The like results for `CC(C)=C[C@H]1O[C@@]2(C)C[C@H]([C@]3(O)OC(=O)C=C3C)O[C@]13[C@H]2C(=O)[C@@]1(O)[C@@H](C)CC[C@H]1[C@@H]3C` were, in that order, 43.6% and 26%.
Consider `CC(C)=CC(=O)[C@]12O[C@@H]([C@]3(O)OC(=O)C=C3C)C[C@H](C)[C@@]1(O)C(=O)[C@H]1[C@@H](CC[C@@H]1C)[C@@H]2C`, for which the inhibition at 20 µM in experiment [1] is 36.9%; in experiment [2] it was under 10%.
For the molecule `CC(C)=C[C@H]1O[C@@](C)(CCc2occc2C)[C@@H]2C(=O)[C@]3(O)[C@@H](C)CC[C@H]3[C@H](C)[C@@]21O`, the inhibition at 20 µM in experiment [1] is 56.8%; in experiment [2] it was under 10%. In experiment [3], the IC50 was 9.15 µM.
For the molecule `CC(C)=C[C@H]1O[C@@](C)(CC[C@@H]2OC(=O)C=C2C)[C@@H]2C(=O)[C@@H]3[C@@H](CC[C@@H]3C)[C@H](C)[C@@]21O`, the inhibition at 20 µM in experiment [1] worked out at 37.1%; in experiment [2], 25.4%.
For `CC(C)=CC(=O)[C@@]1(O)[C@@H](C)[C@@H]2CC[C@H](C)[C@H]2C(=O)[C@@]12O[C@@H](c1occc1C)C[C@@H]2C`, the inhibition at 20 µM in experiment [1] was 34.6%; in experiment [2], under 10%.
The like results for `CC(C)=C[C@H]1O[C@@](C)(CCC(=O)O)C2=C1[C@@H](C)[C@@H]1CC[C@H](C)[C@]1(O)C2=O` were, in that order, 37.9% and 20.2%.
Turning to `CC(C)=CC(=O)[C@]12O[C@]3(CC[C@H](C)[C@@]1(O)C(=O)[C@H]1[C@@H](CC[C@@H]1C)[C@@H]2C)OC(=O)C=C3C`, the inhibition at 20 µM in experiment [1] was 43.3%; in experiment [2] it was under 10%.
As to `CC(C)=CC(=O)[C@@]1(O)[C@@H](C)[C@@H]2CC[C@H](C)[C@H]2C(=O)[C@]1(O)[C@H](C)CC[C@]1(O)OC(=O)C=C1C`, the inhibition at 20 µM was found to be 41.3% in experiment [1] and 11.7% in experiment [2].
On to `CC(C)=C[C@H]1O[C@@](C)(CC[C@@H]2OC(=O)C=C2C)[C@@H]2C(=O)[C@@]3(O)[C@@H](C)CC[C@H]3[C@H](C)[C@@]21O`, for which the inhibition at 20 µM was found to be 39.1% in experiment [1] and 13.2% in experiment [2].
Take `CC(C)=C[C@H]1O[C@@](C)(CC[C@@]2(O)OC(=O)C=C2C)C2=C1[C@@H](C)[C@@H]1CC[C@H](C)[C@]1(O)C2=O`: the inhibition at 20 µM in experiment [1] was 22.4%; in experiment [2], under 10%.
The like results for `CC(C)=C[C@H]1O[C@@](C)(CC[C@@H]2OC(=O)C=C2C)[C@@H]2C(=O)[C@@]3(OO)[C@@H](C)CC[C@H]3[C@H](C)[C@@]21O` were, in that order, 29.9% and 11.8%.
